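Values below derive from 48-hour exposures of cells grown in 96-well plates, with endpoints linearly interpolated between the two concentrations bracketing the appropriate inhibition level. GI50 is the concentration that inhibits growth by half.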 The source made the active and inactive calls. No stated cut-off is given here; in the data, active = GI50 up to about 1.1 µM and inactive = higher.
Key:
Experiment in all cases: growth of human tumour cells (NCI), 48 h
ACHN = tested on: ACHN
OVCAR-5 = tested on: OVCAR-5
HCT-15 = tested on: HCT-15
HCC 2998 = tested on: HCC 2998
SK-MEL-2 = tested on: SK-MEL-2
K562 = tested on: K562
UO-31 = tested on: UO-31
SK-OV-3 = tested on: SK-OV-3
HL-60 = tested on: HL-60
HCT-116 = tested on: HCT-116
SF-268 = tested on: SF-268
HOP-62 = tested on: HOP-62
UACC-62 = tested on: UACC-62
U-251 = tested on: U-251
NCI-H460 = tested on: NCI-H460
OVCAR-8 = tested on: OVCAR-8
NCI-H522 = tested on: NCI-H522

Structure (SMILES) | GI50 (ACHN) | GI50 (OVCAR-5) | GI50 (HCT-15) | GI50 (HCC 2998) | GI50 (SK-MEL-2) | GI50 (K562) | GI50 (UO-31) | GI50 (SK-OV-3) | GI50 (HL-60) | GI50 (HCT-116) | GI50 (SF-268) | GI50 (HOP-62) | GI50 (UACC-62) | GI50 (U-251) | GI50 (NCI-H460) | GI50 (OVCAR-8) | GI50 (NCI-H522)
COc1ccc(OC)c2c1CC(C(=O)O)(C(=O)O)CC2=O | > 100 µM (inactive) | > 100 µM (inactive) | > 100 µM | > 100 µM (inactive) | > 100 µM (inactive) | > 100 µM (inactive) | > 100 µM (inactive) | > 100 µM (inactive) | > 100 µM (inactive) | > 100 µM (inactive) | > 100 µM (inactive) | > 100 µM (inactive) | > 100 µM (inactive) | > 100 µM (inactive) | – | – | –
COc1ccc(C2S/C(=C\c3ccc(O)cc3)C(=O)N2NC(=O)Cc2ccccc2)cc1 (stereo unspecified) | > 100 µM (inactive) | > 100 µM (inactive) | > 100 µM | – | > 100 µM (inactive) | > 100 µM (inactive) | > 100 µM (inactive) | > 100 µM (inactive) | > 100 µM (inactive) | > 100 µM (inactive) | > 100 µM (inactive) | > 100 µM (inactive) | > 100 µM (inactive) | > 100 µM (inactive) | > 100 µM (inactive) | > 100 µM (inactive) | > 100 µM (inactive)
CC(=O)N/C(=C\c1ccccc1/C=C(\NC(C)=O)c1nc2cc(C)c(C)cc2[nH]1)c1nc2cc(C)c(C)cc2[nH]1 | 14.8 µM (inactive) | 36.8 µM (inactive) | > 10 µM | – | 22.1 µM (inactive) | 28.6 µM (inactive) | 3.22 µM (inactive) | 34.4 µM (inactive) | – | 5.48 µM (inactive) | 24.1 µM (inactive) | 14.2 µM (inactive) | 15.6 µM (inactive) | 6.59 µM (inactive) | 26.8 µM (inactive) | 19.2 µM (inactive) | 1.73 µM (inactive)
CCN(CC)Cc1cc(Nc2ccnc3ccc4nn(C)nc4c23)ccc1O | 9.25 µM (inactive) | 12.6 µM (inactive) | 16.7 µM | 13.3 µM (inactive) | – | > 100 µM (inactive) | 11.9 µM (inactive) | 18.5 µM (inactive) | 84.9 µM (inactive) | 4.79 µM (inactive) | 13.6 µM (inactive) | 16.9 µM (inactive) | 13.7 µM (inactive) | 15.3 µM (inactive) | 5.64 µM (inactive) | 11.4 µM (inactive) | 9.29 µM (inactive)
O=C(c1ccccc1)c1ccc2cccc(OC3OC(CO)C(O)C(O)C3O)c2n1 (stereo unspecified) | > 100 µM (inactive) | > 100 µM (inactive) | > 100 µM | > 100 µM (inactive) | > 100 µM (inactive) | > 100 µM (inactive) | > 100 µM (inactive) | – | – | > 100 µM (inactive) | > 100 µM (inactive) | > 100 µM (inactive) | > 100 µM (inactive) | > 100 µM (inactive) | 74.6 µM (inactive) | 73.6 µM (inactive) | > 100 µM (inactive)
O=C(/C=C/C1C(=O)NC(=O)NC1=O)CC(=O)C(=O)Nc1cc(Cl)c(Cl)cc1Cl | > 100 µM (inactive) | > 100 µM (inactive) | > 100 µM | > 100 µM (inactive) | > 100 µM (inactive) | > 100 µM (inactive) | > 100 µM (inactive) | > 100 µM (inactive) | > 100 µM (inactive) | > 100 µM (inactive) | > 100 µM (inactive) | > 100 µM (inactive) | > 100 µM (inactive) | > 100 µM (inactive) | > 100 µM (inactive) | > 100 µM (inactive) | > 100 µM (inactive)
CCN1C(C)=NC2C(=O)c3ccccc3C(=O)C21 (stereo unspecified) | 74.8 µM (inactive) | – | 57.4 µM | 27.4 µM (inactive) | > 100 µM (inactive) | 78.9 µM (inactive) | > 100 µM (inactive) | – | 37.8 µM (inactive) | 36.2 µM (inactive) | 57.7 µM (inactive) | 37.4 µM (inactive) | 43 µM (inactive) | > 100 µM (inactive) | 30.1 µM (inactive) | 74.1 µM (inactive) | –
C[C@H](NC(=O)OC1C2C=CC(O)C1CC2)c1ccccc1 (stereo partly specified) | > 100 µM (inactive) | > 100 µM (inactive) | 13.1 µM | > 100 µM (inactive) | > 100 µM (inactive) | > 100 µM (inactive) | > 100 µM (inactive) | > 100 µM (inactive) | > 100 µM (inactive) | > 100 µM (inactive) | > 100 µM (inactive) | > 100 µM (inactive) | > 100 µM (inactive) | > 100 µM (inactive) | 80 µM (inactive) | > 100 µM (inactive) | > 100 µM (inactive)
CON(C)C(=O)CCCO | > 100 µM (inactive) | – | > 100 µM | – | > 100 µM (inactive) | > 100 µM (inactive) | > 100 µM (inactive) | > 10 µM (inactive) | > 100 µM (inactive) | > 100 µM (inactive) | > 100 µM (inactive) | > 100 µM (inactive) | > 100 µM (inactive) | > 100 µM (inactive) | > 100 µM (inactive) | > 100 µM (inactive) | > 100 µM (inactive)
CCC(=O)O[C@@H]1C2C(OC(C)=O)C34COC(C)([C@@H]3C3C(C[C@]3(C)OC(C)=O)[C@@H](OC(=O)c3ccccc3)C4=O)[C@H](OC(C)=O)[C@@]2(OC(C)=O)C[C@@H]1C (stereo partly specified) | 36.1 µM (inactive) | 94.4 µM (inactive) | 16 µM | 64.7 µM (inactive) | 79.4 µM (inactive) | > 10 µM (inactive) | 59.8 µM (inactive) | 15.7 µM (inactive) | 15.6 µM (inactive) | 30.7 µM (inactive) | 44.1 µM (inactive) | 25.1 µM (inactive) | 75.9 µM (inactive) | 10.4 µM (inactive) | > 100 µM (inactive) | 95.5 µM (inactive) | 37.1 µM (inactive)
COC[C@@H]1Cc2cc(OC)c3c(c2[C@H](c2ccc(OC)c(OC)c2)[C@H]1COC)OCO3 [HYPOPHYLLANTHIN] | 93.8 µM (inactive) | > 100 µM (inactive) | > 100 µM | > 100 µM (inactive) | > 100 µM (inactive) | > 10 µM (inactive) | 70.1 µM (inactive) | > 100 µM (inactive) | > 100 µM (inactive) | 99.8 µM (inactive) | 51.6 µM (inactive) | – | > 100 µM (inactive) | > 100 µM (inactive) | > 100 µM (inactive) | > 100 µM (inactive) | 55.7 µM (inactive)
C[C@@H]1CC2(C[C@@H](C)C3[C@@H](CC4(C)CCCC5C6=CC(O)(CC[C@]34C)OC6=CC(=O)OC5(C)C)O2)OC1=O (stereo partly specified) | > 100 µM (inactive) | > 100 µM (inactive) | > 100 µM | > 100 µM (inactive) | > 100 µM (inactive) | 84.3 µM (inactive) | > 100 µM (inactive) | > 100 µM (inactive) | > 100 µM (inactive) | > 100 µM (inactive) | – | – | > 100 µM (inactive) | > 100 µM (inactive) | – | – | > 100 µM (inactive)
O=[N+]([O-])c1ccc(C2SCc3nc4ccccc4n32)cc1 (stereo unspecified) | 47.8 µM (inactive) | 17.6 µM (inactive) | – | – | 60.1 µM (inactive) | 33.4 µM (inactive) | 24.8 µM (inactive) | 92.9 µM (inactive) | 43.9 µM (inactive) | – | > 100 µM (inactive) | > 100 µM (inactive) | 32.1 µM (inactive) | 93.8 µM (inactive) | > 100 µM (inactive) | > 100 µM (inactive) | –
CC(C)N(C(=O)C12C3C4C1C1C4(C#N)C3C12C#N)C(C)C (stereo unspecified) | > 100 µM (inactive) | > 100 µM (inactive) | > 100 µM | > 100 µM (inactive) | – | > 100 µM (inactive) | > 100 µM (inactive) | > 100 µM (inactive) | – | – | > 100 µM (inactive) | > 100 µM (inactive) | > 100 µM (inactive) | > 100 µM (inactive) | > 100 µM (inactive) | > 100 µM (inactive) | –
OCC1O[C@H](O[C@@H]2CCCN3CC(O)C(O)[C@@H]23)C(O)C(O)C1O (stereo partly specified) | > 100 µM (inactive) | > 100 µM (inactive) | > 100 µM | > 100 µM (inactive) | > 100 µM (inactive) | > 100 µM (inactive) | > 100 µM (inactive) | > 100 µM (inactive) | > 100 µM (inactive) | > 100 µM (inactive) | > 100 µM (inactive) | > 100 µM (inactive) | > 100 µM (inactive) | > 100 µM (inactive) | – | > 100 µM (inactive) | > 100 µM (inactive)
CCNC1=Nc2ccccc2-n2c(nn3nc4ccccc4c23)N1CC | > 100 µM (inactive) | > 100 µM (inactive) | > 100 µM | – | – | 66.7 µM (inactive) | – | – | 36.6 µM (inactive) | > 100 µM (inactive) | > 100 µM (inactive) | > 100 µM (inactive) | > 100 µM (inactive) | > 100 µM (inactive) | > 100 µM (inactive) | > 100 µM (inactive) | 72.4 µM (inactive)
CC1(O)C=CC2CCC1C2O (stereo unspecified) | > 100 µM (inactive) | > 100 µM (inactive) | > 100 µM | – | > 100 µM (inactive) | > 100 µM (inactive) | > 100 µM (inactive) | > 100 µM (inactive) | > 100 µM (inactive) | 19.7 µM (inactive) | 29.3 µM (inactive) | > 100 µM (inactive) | > 100 µM (inactive) | > 100 µM (inactive) | 46.5 µM (inactive) | > 100 µM (inactive) | > 100 µM (inactive)
c1ccc(/N=c2\snc3scc(-c4ccccc4)n23)cc1 | 48 µM (inactive) | > 100 µM (inactive) | 41.6 µM | 44.1 µM (inactive) | 34.8 µM (inactive) | 52.6 µM (inactive) | 27.6 µM (inactive) | 84.1 µM (inactive) | 40.6 µM (inactive) | – | 50.1 µM (inactive) | 30.5 µM (inactive) | 30.1 µM (inactive) | 26.8 µM (inactive) | – | 48.6 µM (inactive) | 18.7 µM (inactive)
